Test [1] concerns CDF1 mice immunized with sheep red blood cells (SRBC). The test can be described thus: Delayed Type Hypersensitivity (D.T.H.) response to SRBC in mice (cell-mediated immunity). In kind it is in vivo. As to conditions: 24 hours after eliciting injection.
Test [2] relates to Wister rats, carragheenin-induced footpad swelling. The experiment in a line: Suppression of rat footpad swelling caused by carragheenin. Type of test: in vivo. The protocol: Tests were made to estimate the suppressive effect of ebelactone and esterastin (U.S. Pat. Nos. 4,189,438 and 4,242,453) on the swelling of rat footpad caused by injection of carragheenin when the test compounds were administered orally and intraperitoneally to the test animal, Wister rats (male, body weight:140 to 150 g). The test compound was dissolved in about 0.5 ml of ethanol with addition of one drop of a non-ionic surface-active agent "Tween" 80, and the test compound solution in ethanol was diluted with an aqueous gum arabi to prepare an aqueous suspension containing the test dose of ebelactone or esterastin. The test sample suspension so prepared was then administered orally or intraperitoneally to the rats. One hour later, 1% aqueous carragheenin was injected subcutaneously to the footpad to bring about inflammation. After the injection of carragheenin, the volume of the footpad was measured twice, namely at the end of 3 hours and at the end of 5 hours from the carragheenin injection. For control test, the ebelactone or esterastin was omitted in the above test. Degree (%) of suppression of swelling was calculated from the measured volumes of the inflammated footpad.

Test [3] deals with esterase preparation obtained from pig liver. The experiment in a line: Anti-esterase activity assay (modified Huggins and Lapides method). In kind it is biochemical. As to conditions: substrate p-nitrophenyl acetate, pH 7.0, room temperature, 20 minutes. On the procedure: Firstly, assay of ebelactone for its anti-esterase activity can be made by determining the potency to inhibit esterase according to a modification of the method of C. […] Thus, a commercially available esterase preparation obtained from pig liver (a product of Sigma Co., U.S.A.) is diluted with water to a 1000 folds volume, and the resulting esterase solution (0.025 ml) is admixed with 1 ml of 0.1 M phosphate buffered solution (pH 7.0) containing 0.06% "Triton X-100" (a trade name of an emulsifier consisting of a polyethyleneglycol alkylphenylether, a product of Rohm & Haas Co., U.S.A.) and 0.95 ml of water containing an ebelactone sample to be assayed, and the resulting mixed solution (1.975 ml) is admixed with 0.025 ml of a solution of 40 mM p-nitrophenyl acetate (the substrate) in methanol to start the reaction of p-nitrophenyl acetate with the esterase. After the enzymatic reaction is effected at room temperature for 20 minutes, absorbance (a) at 400 nm of the resulting reaction solution is measured. On the other hand, absorbance (b) at 400 nm of a control reaction solution containing no ebelactone is measured in the same way as above. Percent of inhibition to esterase is calculated according to the following equation:
Inhibition (%)=(b-a)/b×100

In test [4] the target is T1, formylmethionine aminopeptidase prepared from rat liver (Rattus norvegicus, UniProt P13676).
T1 construct: Formylmethionineaminopeptidase employed is that prepared from rat liver; from tissue; host or cells: rat liver
T1 sequence (P13676 1-732): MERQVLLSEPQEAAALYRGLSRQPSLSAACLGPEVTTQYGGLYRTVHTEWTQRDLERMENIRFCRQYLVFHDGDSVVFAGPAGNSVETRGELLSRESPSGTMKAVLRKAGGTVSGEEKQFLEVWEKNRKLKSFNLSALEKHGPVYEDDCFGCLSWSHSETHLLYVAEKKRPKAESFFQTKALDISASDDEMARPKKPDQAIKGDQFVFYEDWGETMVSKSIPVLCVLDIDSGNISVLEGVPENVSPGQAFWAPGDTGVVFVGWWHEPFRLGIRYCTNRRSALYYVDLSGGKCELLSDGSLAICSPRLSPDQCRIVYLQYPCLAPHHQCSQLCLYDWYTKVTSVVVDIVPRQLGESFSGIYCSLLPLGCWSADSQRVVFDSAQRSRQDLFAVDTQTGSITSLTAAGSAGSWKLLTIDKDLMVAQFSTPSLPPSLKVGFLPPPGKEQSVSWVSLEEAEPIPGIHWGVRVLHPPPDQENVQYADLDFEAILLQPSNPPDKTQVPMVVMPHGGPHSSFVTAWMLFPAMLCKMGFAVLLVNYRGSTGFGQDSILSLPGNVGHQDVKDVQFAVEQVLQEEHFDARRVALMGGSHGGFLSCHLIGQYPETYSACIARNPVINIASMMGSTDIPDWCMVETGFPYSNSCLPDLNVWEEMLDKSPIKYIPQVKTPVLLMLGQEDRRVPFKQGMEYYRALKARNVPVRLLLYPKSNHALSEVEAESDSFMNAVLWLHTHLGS
The experiment in a line: Anti-formylmethionine aminopeptidase activity assay. The note with it: rat liver enzyme, substrate N-formylmethionine β-naphthylamide, pH 7.8, 37° C., 25 minutes; read-out: ID50, dose giving 50% inhibition to formylmethionine aminopeptidase (converted). In kind it is biochemical. The protocol:
Further, assay of ebelactone for its anti-formylmethionineaminopeptidase can be made according to the following method. Thus, as the substrate solution is employed a solution of N-formylmethionine β-naphthylamide(as the substrate) in methanol containing 5% (w/v) of "Tween" 20 (a trade name of a non-ionic surface-active agent, a product of Atlas Powder Co., U.S.A.). Formylmethionineaminopeptidase employed is that prepared from rat liver. The substrate solution (0.005 ml), 0.5 ml of 0.1 M Tris-hydrochloric acid buffered solution (pH 7.8) and 0.495 ml of water containing an ebelactone sample to be assayed are mixed together to a total volume of […]. The reaction solution so obtained is further admixed with 0.05 ml of the enzyme solution, followed by effecting the enzymatic reaction at 37° C. for 25 minutes. […] After allowing to stand at ambient temperature for 15 minutes, absorbance (a) at 525 nm of the reaction solution is measured. On the other hand, adsorbance (b) at 525 nm of a control reaction solution obtained from the blank test is measured. Percent of inhibition to the formylmethionine aminopeptidase is calculated in a similar way to the above-mentioned method for determination of the potency for inhibition to esterase.

[5] abbreviates: intraperitoneal, 30 mg/kg, 3 Hours after carragheenin.
Setting [6] is: intraperitoneal, 30 mg/kg, 5 Hours after carragheenin.
The mark [7] stands for this setting: intraperitoneal, all dosages and all times, except 5 hours with 5 mg/kg and 3 hours with 10 mg/kg of ebelactone B.
The mark [8] stands for this setting: oral, 50 mg/kg, 3 Hours after carragheenin.
[9] abbreviates: oral, 50 mg/kg, 5 Hours after carragheenin.

Molecules are shown by their SMILES. In brackets after ≈: the same amount, converted by molar mass.

Turning to `CCC(C)C(O)C(C)C(=O)C(C)C=C(C)CC(C)C1OC(=O)C1CC` (stereo not drawn) [Ebelactone B, ebelactone B], the Foodpad thickness in test [1] (0.5 mg/kg oral, control 8.1) is 14.1 × 0.1 mm; in test [1] (0.781 mg/kg intraperitoneal at immunization, control 7.4), 14.2 × 0.1 mm; in test [1] (3.125 mg/kg intraperitoneal at immunization, control 7.4), 13.6 × 0.1 mm; in test [1] (12.5 mg/kg intraperitoneal at immunization, control 7.4) it was 13.3 × 0.1 mm; in test [1] (50 mg/kg intraperitoneal at immunization, control 7.4) it was 12.2 × 0.1 mm. In addition, the “Degree (%) of suppression of inflammation” value (“Degree (%) … of inflammation” for short) in test [2] (intraperitoneal, 5 mg/kg, 3 Hours after carragheenin) is recorded as 17.1%; in test [2] (intraperitoneal, 5 mg/kg, 5 Hours after carragheenin) it was 8.8%; in test [2] (intraperitoneal, 10 mg/kg, 3 Hours after carragheenin), 9.1%; in test [2] (intraperitoneal, 10 mg/kg, 5 Hours after carragheenin), 10.0%; in test [2] (setting [5]) it was 50.6%; in test [2] (setting [6]) it was 20.9%. For the same compound, the “reduction in the degree of swelling as compared to the control test group” value in test [2] (setting [7]) is on record as “significant reduction in the degree of swelling”; in test [2] (oral, 10 mg/kg, at 3 hours and 5 hours from carragheenin injection), “significant reduction in the degree of swelling”; in test [2] (oral, 50 mg/kg, at 3 hours from carragheenin injection) it was “significant reduction in the degree of swelling”; in test [2] (oral, 100 mg/kg, at 5 hours from carragheenin injection), “significant reduction in the degree of swelling”. The “Degree (%) of suppression of swelling” value in test [2] (oral, 10 mg/kg, 3 Hours after carragheenin) was found to be 11.2%; in test [2] (oral, 10 mg/kg, 5 Hours after carragheenin) it was 8.2%; in test [2] (setting [8]), 11.6%; in test [2] (setting [9]) it was 7.8%; in test [2] (oral, 100 mg/kg, 3 Hours after carragheenin) it was 7.0%; in test [2] (oral, 100 mg/kg, 5 Hours after carragheenin), 9.6%. Further, in test [3], the “ID50, dose giving 50% inhibition to esterase” value amounted to 0.00035 µg/mL (≈ 0.000993 µM). In test [4], the IC50 is 56.7 nM.
In turn, `CCC(C)C(O)C(C)C(=O)C(C)C=C(C)CC(C)C1OC(=O)C1C` (stereo not drawn) [Ebelactone A, ebelactone A] registered a Foodpad thickness in test [1] (0.5 mg/kg oral, control 8.1) of 12.2 × 0.1 mm. Also, the “Degree (%) … of inflammation” value was 45.9% in test [2] (setting [5]) and 18.5% in test [2] (setting [6]). Besides, the “reduction in the degree of swelling as compared to the control test group” value in test [2] (setting [7]) was “significant reduction in the degree of swelling”. In addition, the “ID50, dose giving 50% inhibition to esterase” value in test [3] turned out to be 0.056 µg/mL (≈ 0.165 µM). In addition, the IC50 in test [4] was 236 nM.
On to `CCCCCC=CCC=CCC(CC1OC(=O)C1CCCCCC)OC(=O)C(CC(N)=O)NC(C)=O` (stereo not drawn) [Esterastin, esterastin, reference compound], for which the entries for the “Degree (%) … of inflammation” value in test [2] (setting [5]) and in test [2] (setting [6]) were 31.1% and 28.1%, respectively. The “Degree (%) of suppression of swelling” value in test [2] (setting [8]) is recorded as 10.3%; in test [2] (setting [9]), -3.0%.

These data come from US4358602A, “Ebelactones and production thereof” (Zaidan Hojin Biseibutsu Kagaku Kenkyu Kao, priority 1980, dated 1982).
